Results on five compounds are retold here after ChEMBL document CHEMBL1130925, “Anti-AIDS agents. 33. Synthesis and anti-HIV activity of mono-methyl substituted 3',4'-di-O-(-)-camphanoyl-(+)-cis-khellactone (DCK) analogues” (Bioorg Med Chem Lett, 1998).

As a reminder, the EC50 is the midpoint of the concentration-response curve. In general, IC50 refers to the point on the concentration scale where inhibition reaches its midpoint. Read a high IC50 as weaker potency in that assay.

The structures appear in SMILES notation.

Data set [1] can be described thus: Compound was tested for anti HIV activity by measuring therapeutic index in H9 lymphocytes; IC50/EC50. The format is organism-based. Conditions: human immunodeficiency virus, H9 lymphocytes infected with HIV; read-out: TI.
Data set [2] relates to H9. Nature of the data set: Compound was evaluated for anti-HIV activity in acutely infected H9 Lymphocytes. Format: functional, cell-based. Conditions: Homo sapiens.
Data set [3] relates to H9. Put plainly: Compound was evaluated for anti-HIV activity and the concentration that inhibits uninfected H9 cell growth by 50%. Format: functional, cell-based. As to conditions: Homo sapiens.

`CC1(C)Oc2ccc3ccc(=O)oc3c2[C@@H](OC(=O)C23CCC(C)(C(=O)O2)C3(C)C)[C@H]1OC(=O)C12CCC(C)(C(=O)O1)C2(C)C` (stereo not given in full): the selectivity ratio in data set [1] was found to be 137000.

For `Cc1cc2ccc3c(c2oc1=O)[C@@H](OC(=O)C12CCC(C)(C(=O)O1)C2(C)C)[C@@H](OC(=O)C12CCC(C)(C(=O)O1)C2(C)C)C(C)(C)O3` (stereo not given in full), in the data set on H9 [2], the EC50 was 0.000157 nM. In the data set on H9 [3], this compound gave an IC50 of more than 157000 nM.

Take `Cc1cc2ccc(=O)oc2c2c1OC(C)(C)[C@H](OC(=O)C13CCC(C)(C(=O)O1)C3(C)C)[C@@H]2OC(=O)C12CCC(C)(C(=O)O1)C2(C)C` (stereo not given in full): the selectivity ratio in data set [1] came out at 220. The midpoint of the response with H9 [2], the EC50, lay at 150 nM. The IC50 in the data set with H9 [3] is 33000 nM.

In turn, `Cc1cc2c(c3oc(=O)ccc13)[C@@H](OC(=O)C13CCC(C)(C(=O)O1)C3(C)C)[C@@H](OC(=O)C13CCC(C)(C(=O)O1)C3(C)C)C(C)(C)O2` (stereo not given in full) registered an EC50 with H9 [2] of 0.000423 nM. Further, the IC50 in the data set with H9 [3] is more than 157000 nM.

Compound `Cc1cc(=O)oc2c3c(ccc12)OC(C)(C)[C@H](OC(=O)C12CCC(C)(C(=O)O1)C2(C)C)[C@@H]3OC(=O)C12CCC(C)(C(=O)O1)C2(C)C` (stereo not given in full) returned an EC50 in the data set on H9 [2] of 0.000157 nM. Moreover, the IC50 with H9 [3] is more than 157000 nM.
